We go through three molecules from publication PMC11148114 (FEBS Open Bio, 2024).

As a reminder, the stoichiometry N is a count of units in the complex or per binding partner. As usually defined, the IC50 is the concentration at which inhibition is half-maximal. A lower IC50 goes with higher potency.

Test [1] deals with Staphylococcus aureus lipase (Staphylococcus aureus). Put plainly: SEC + other: SEC-SAXS. In general terms: Size exclusion chromatography separates by hydrodynamic size, large species first.
The target in test [2] is T1, Staphylococcus aureus lipase (SAL) (Staphylococcus aureus, UniProt A0A0U1MWF9).
T1 construct: gene lip; one Ca and one Zn per monomer
The test can be described thus: p-nitrophenyl butyrate hydrolysis, absorbance […] nm. Format: biochemical.

Turning to “Staphylococcus aureus lipase (from UniProt A0A1R3UHM3 1-645) (enzyme)”, the stoichiometry N in test [1] stood at 2.
On to `CCCCCCCCCCC/C=C\CCCCC(=O)OC` [PSM, petroselinic acid methyl ester], for which, in test [2], the half-maximal inhibitory concentration (IC50) was determined as 10.5 µM.
`CCCCCCCCCCC/C=C\CCCCC(=O)O` [PSA, petroselinic acid]: half-maximal inhibition in test [2] (IC50) was put at 3.4 µM. Compared with the last molecule, the IC50 is about 3.1-fold lower.
